Assay results published in ChEMBL document CHEMBL3399981, “Novel neurotrophic phenylbutenoids from Indonesian ginger Bangle, Zingiber purpureum” (Bioorg Med Chem Lett, 2015).
Active and inactive are the calls of the source. The rule behind the calls is not given here.

Legend:
[1] = molecular target: Amyloid-beta precursor protein (Homo sapiens) (UniProt P05067); experiment: Inhibition of beta-sheet formation in amyloid beta-42 (unknown origin) assessed as decrease in ThT fluorescence after 1 hr by spectrophotometric plate reader
Amyloid-beta precursor protein (Homo sapiens), sequence (P05067 whole entry): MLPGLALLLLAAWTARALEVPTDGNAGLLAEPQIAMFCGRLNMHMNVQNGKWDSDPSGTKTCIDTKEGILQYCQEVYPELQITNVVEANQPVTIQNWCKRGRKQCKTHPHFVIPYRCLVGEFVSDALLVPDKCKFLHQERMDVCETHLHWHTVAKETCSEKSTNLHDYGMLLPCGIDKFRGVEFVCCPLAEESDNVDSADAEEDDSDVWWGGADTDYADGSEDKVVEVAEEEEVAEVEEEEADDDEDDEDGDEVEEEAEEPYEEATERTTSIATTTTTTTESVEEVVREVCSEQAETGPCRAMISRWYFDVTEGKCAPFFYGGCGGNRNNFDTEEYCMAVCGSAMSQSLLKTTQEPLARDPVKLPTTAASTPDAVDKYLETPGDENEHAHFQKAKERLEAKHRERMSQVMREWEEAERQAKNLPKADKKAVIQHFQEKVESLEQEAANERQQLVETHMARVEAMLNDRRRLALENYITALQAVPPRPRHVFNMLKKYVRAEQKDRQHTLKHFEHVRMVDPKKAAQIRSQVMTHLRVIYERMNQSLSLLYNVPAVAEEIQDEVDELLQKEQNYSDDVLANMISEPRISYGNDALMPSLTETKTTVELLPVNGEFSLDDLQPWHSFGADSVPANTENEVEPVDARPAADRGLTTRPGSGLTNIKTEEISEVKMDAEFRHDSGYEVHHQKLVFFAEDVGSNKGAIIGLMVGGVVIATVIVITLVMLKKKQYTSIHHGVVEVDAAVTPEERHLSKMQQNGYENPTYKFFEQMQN

PC-12 [2] = experiment: Neuritogenic activity in rat PC12 cells assessed as neurite outgrowth at 30 uM after 4 days by phase-contrast microscopy; format: functional, cell-based
[3] = molecular target: Amyloid-beta precursor protein (Homo sapiens) (UniProt P05067); experiment: Inhibition of beta-sheet formation in amyloid beta-42 (unknown origin) assessed as decrease in ThT fluorescence at 50 uM after 1 hr by spectrophotometric plate reader
PC-12 [4] = experiment: Neuritogenic activity in rat PC12 cells assessed as neurite outgrowth at 10 uM after 4 days by phase-contrast microscopy in presence of 2 ng/ml NGF; format: functional, cell-based
[5] = Toxicity in rat PC12 cells at > 30 uM after 4 days by phase-contrast microscopy in presence of 2 ng/ml NGF; format: cell-based; details: pc-12, 96 h
PC-12 [6] = experiment: Neuritogenic activity in rat PC12 cells assessed as neurite outgrowth at 1 uM after 4 days by phase-contrast microscopy in presence of 2 ng/ml NGF; format: functional, cell-based
PC-12 [7] = experiment: Neuritogenic activity in rat PC12 cells assessed as neurite outgrowth after 4 days by phase-contrast microscopy in presence of 2 ng/ml NGF; format: functional, cell-based
PC-12 [8] = experiment: Neuritogenic activity in rat PC12 cells assessed as neurite outgrowth at 1 to 30 uM after 4 days by phase-contrast microscopy in presence of 2 ng/ml NGF; format: functional, cell-based
[9] = Toxicity in rat PC12 cells at > 10 uM after 4 days by phase-contrast microscopy in presence of 2 ng/ml NGF; format: cell-based; details: pc-12, 96 h

In the case of `COc1ccc(/C=C/[C@H]2CCC=C[C@@H]2c2ccc(OC)c(OC)c2)cc1OC`, the inhibition [1] is reported as “Dose-dependent effect”, the Activity (PC-12 [2]) is reported as “Active” and the inhibition [3] is reported as 59.6%.

With `COc1cc(/C=C/C(=O)C2(C(=O)/C=C/c3ccc(O)c(OC)c3)CCC=C[C@@H]2c2cc(OC)c(OC)cc2OC)ccc1O` the Activity (PC-12 [4]) was “Active”, the Activity [5] was “Toxic” and the Activity (PC-12 [6]) was “Active”. The Activity (PC-12 [7]) was “Dose-dependent effect”.

In the case of `COc1ccc([C@H]2[C@H](CCO)CC=C[C@@H]2c2ccc(OC)c(OC)c2)cc1OC`, the Activity (PC-12 [8]) is reported as “inactive”.

With `COc1cc(/C=C/C(=O)C2(C(=O)/C=C/c3ccc(O)c(OC)c3)CCC=C[C@@H]2c2ccc(OC)c(OC)c2)ccc1O` the inhibition [1] was “Dose-dependent effect”, the Activity [9] was “Toxic” and the Activity (PC-12 [6]) was “Active”. The Activity (PC-12 [7]) was “Dose-dependent effect” and the inhibition [3] was 18.9%.
